Source: the Deep4Chem optical property database
Values belong to the compound of their own block, whether it stands above or below them.

Experiment: solvent given as SMILES

- absorption maximum (in CCOC(C)=O): 388 nm
SMILES: OCc1cc2c(cc3ccc4cccc5ccc2c3c45)[nH]1

- absorption maximum (in ClCCl): 303 nm
SMILES: COc1ccc(-n2c3ccccc3c3c(C)cc4ccccc4c32)cc1

- absorption maximum (in CC#N): 381 nm
SMILES: COc1ccc(-n2nc(C(=O)c3ccc(Cl)cc3)c(N3CCCC3)n2)cc1

- absorption maximum (in C1COCCO1): 370 nm
SMILES: COC(=O)c1ccc(/C=C2\N=C(c3ccccc3)OC2=O)cc1

- absorption maximum (in C1CCCCC1): 372 nm
- absorption maximum (in CC#N): 357 nm
- absorption maximum (in CO): 356 nm
- absorption maximum (in ClC(Cl)Cl): 369 nm
SMILES: CN(C)c1ccc(C#Cc2ccc(-c3nc(C#N)c(C#N)n3C)cc2)cc1

- absorption maximum (in C1CCOC1): 344 nm
- absorption maximum (in CC#N): 341 nm
- absorption maximum (in ClC(Cl)Cl): 346 nm
- absorption maximum (in ClCCl): 345 nm
SMILES: COc1ccc2cc(-c3ccc([N+](=O)[O-])cc3)ccc2c1

- absorption maximum (in ClC(Cl)Cl): 328 nm
SMILES: CCCCCCN1C(=O)c2cccc3cc(/N=C\c4cnc5ccccc5c4)cc(c23)C1=O

- absorption maximum (in C1CCOC1): 365 nm
SMILES: C1=C(c2ccccc2)C=C(c2ccccc2)/C1=C/C1CCCCC1

- absorption maximum (in CO): 300 nm
SMILES: COc1ccc(-c2nc(-c3cccc(OC)c3)[nH]c2-c2ccc(OC)cc2)cc1

- absorption maximum (in CCO): 358 nm
SMILES: CCOC(=O)/C=C/c1cc2ccc(-c3cn(Cc4ccccc4)nn3)cc2oc1=O

- absorption maximum (in ClCCl): 523 nm
SMILES: CCc1cccc(CC)c1-c1c2ccccc2c(C#Cc2ccccc2)c2cc3ccccc3cc12

- absorption maximum (in ClC(Cl)Cl): 330 nm
SMILES: CCCCn1c2ccccc2c2ccc3c4cc(-c5ccccc5)ccc4n(CCCC)c3c21

- absorption maximum (in ClCCl): 432 nm
SMILES: CC1=NN(c2cccc3ccccc23)[B-](F)(F)[n+]2ccccc21

- absorption maximum (in C1CCOC1): 640 nm
- absorption maximum (in ClCCl): 634 nm
SMILES: F[B-]1(F)n2c(c3ccccc3c2-c2ccccc2)C=C2c3ccccc3C(c3ccccc3)=[N+]21

- absorption maximum (in ClCCl): 374 nm
SMILES: CC(=O)c1c(N[C@@H](Cc2ccccc2)C(=O)O)c2ccc(N(C)C)cc2oc1=O

- absorption maximum (in O): 430 nm
SMILES: CC(=O)Nc1ccc2c(c1)c(=O)c1cc(NC(C)=O)ccc1n2CCCCCC(=O)O

Second part, the compound before the results:

SMILES: CCCN1/C(=C/C=C(/C=C/C2=[N+](CCC)c3ccccc3C2(C)C)c2cc[n+](C)cc2)C(C)(C)c2ccccc21
- absorption maximum (in CO): 627 nm
- absorption maximum (in CS(C)=O): 637 nm
- absorption maximum (in O): 626 nm

SMILES: CCCCc1ccc(-n2c3c4ccc(C(F)(F)F)cc4nnc3c3c2c2nnc4cc(C(F)(F)F)ccc4c2n3-c2ccc(CCCC)cc2)cc1
- absorption maximum (in Cc1ccccc1): 322 nm

SMILES: CC(C)(C)c1cc(C(C)(C)C)c(-c2nnc(-c3ccc(-n4c5ccccc5c5ccccc54)cc3)o2)c(C(C)(C)C)c1
- absorption maximum (in Cc1ccccc1): 340 nm

SMILES: F[B-]1(F)Oc2c(-c3cccc4c3O[B-](F)(F)[n+]3c(-c5ccccc5)c(-c5ccccc5)n(-c5ccc(C(F)(F)F)cc5)c3-4)cccc2-c2n(-c3ccc(C(F)(F)F)cc3)c(-c3ccccc3)c(-c3ccccc3)[n+]21
- absorption maximum (in C1CCOC1): 342 nm

SMILES: COc1cc2c(cc1-c1ccc(Cl)cc1)Cc1c3c(c4c(c1-2)-c1cc(OC)c(-c2ccc(Cl)cc2)cc1C4)C(=O)N(CCC(C)C)C3=O
- absorption maximum (in C1CCOC1): 406 nm

SMILES: COc1ccc(-c2nc(N)nc(C#N)c2C#N)cc1OC
- absorption maximum (in C1COCCO1): 347 nm
- absorption maximum (in CC#N): 359 nm
- absorption maximum (in CC(C)=O): 348 nm
- absorption maximum (in CCO): 350 nm
- absorption maximum (in CCOC(C)=O): 356 nm
- absorption maximum (in CO): 346 nm

SMILES: Cc1cc(C)c2nc3[nH]c(=O)[nH]c(=O)c3nc2c1
- absorption maximum (in CC#N): 388 nm

SMILES: O=S(=O)(c1ccc(N2c3ccccc3[Si](c3ccccc3)(c3ccccc3)c3ccccc32)cc1)c1ccc(N2c3ccccc3[Si](c3ccccc3)(c3ccccc3)c3ccccc32)cc1
- absorption maximum (in Cc1ccccc1): 328 nm

SMILES: COc1ccc(C2=c3sc(-c4ccc(OC)cc4)cc3=[N+]3C2=Nc2c(-c4ccc(OC)cc4)c4sc(-c5ccc(OC)cc5)cc4n2[B-]3(F)F)cc1
- absorption maximum (in ClC(Cl)Cl): 788 nm

SMILES: Fc1cc(-c2nc(-c3ccccc3)nc(-c3ccccc3)n2)ccc1-n1c2ccccc2c2c3c(ccc21)C1(c2ccccc2-c2ccccc21)c1ccccc1-3
- absorption maximum (in Cc1ccccc1): 370 nm

SMILES: CCCCN(CCCC)c1ccc(C#Cc2cc(C#Cc3c(F)c(F)c(F)c(F)c3F)c(C#Cc3ccc(N(CCCC)CCCC)cc3)cc2C#Cc2c(F)c(F)c(F)c(F)c2F)cc1
- absorption maximum (in ClCCl): 462 nm

SMILES: CC(C)(C)c1ccc2c(c1)c1cc(C(C)(C)C)ccc1n2-c1ccc(C#Cc2ccc(C#Cc3ccc(C=C(C#N)C#N)cc3)cc2)cc1
- absorption maximum (in ClCCl): 382 nm

SMILES: CN(C)c1ccc(-c2ccc(-c3cc(N4CCCCC4)c(C#N)c4c3-c3ccccc3CC4)cc2)cc1
- absorption maximum (in C1CCCCC1): 353 nm
- absorption maximum (in C1CCOC1): 342 nm
- absorption maximum (in CN(C)C=O): 350 nm
- absorption maximum (in CS(C)=O): 342 nm
- absorption maximum (in Cc1ccccc1): 360 nm
- absorption maximum (in ClC(Cl)Cl): 348 nm

SMILES: O=C1c2ccc(N(c3ccc(-c4ccccc4)cc3)c3ccc(-c4ccccc4)cc3)cc2C(=O)c2ccc(N(c3ccc(-c4ccccc4)cc3)c3ccc(-c4ccccc4)cc3)cc21
- absorption maximum (in Cc1ccccc1): 464 nm

SMILES: N#Cc1ccc(N2c3ccccc3C(c3ccccc3)(c3ccccc3)c3ccccc32)cc1
- absorption maximum (in Cc1ccccc1): 352 nm

SMILES: CCCCCCCCCCCCOc1cc2c3c(ccc4c5c(OCCCCCCCCCCCC)cc6c7c(ccc(c1c34)c75)C(=O)N(C1CCCCC1)C6=O)C(=O)N(C1CCCCC1)C2=O
- absorption maximum (in ClC(Cl)Cl): 570 nm

SMILES: CC(C)[Si](C#Cc1c2ccccc2c(C#Cc2c3ccccc3c(C#Cc3c4ccccc4c(C#Cc4c5ccccc5c(C#Cc5c6ccccc6c(C#C[Si](C(C)C)(C(C)C)C(C)C)c6ccccc56)c5ccccc45)c4ccccc34)c3ccccc23)c2ccccc12)(C(C)C)C(C)C
- absorption maximum (in Cc1ccccc1): 585 nm

SMILES: CCOC(=O)CSc1nc(-c2ccccc2)c(C)c(C#N)c1C#N
- absorption maximum (in C1COCCO1): 350 nm
- absorption maximum (in CC#N): 365 nm
- absorption maximum (in CCO): 367 nm
- absorption maximum (in CCOC(C)=O): 366 nm
- absorption maximum (in ClC(Cl)Cl): 376 nm
- absorption maximum (in c1ccccc1): 372 nm

SMILES: CC1(C)c2ccccc2N(c2ccccc2)c2ccc(-c3ccc(S(=O)(=O)c4ccc(-c5ccc6c(c5)C(C)(C)c5ccccc5N6c5ccccc5)cc4)cc3)cc21
- absorption maximum (in Cc1ccccc1): 363.38 nm

SMILES: CCCCN1C(=O)c2cc(Oc3ccc(C(C)(C)C)cc3)c3c4c(Oc5ccc(C(C)(C)C)cc5)cc5c(=O)[nH]/c(=C\c6ccc7ccccc7n6)c6cc(Oc7ccc(C(C)(C)C)cc7)c(c7c(Oc8ccc(C(C)(C)C)cc8)cc(c2c37)C1=O)c4c56
- absorption maximum (in ClCCl): 626 nm

SMILES: CCCCCCc1ccc(/C=C/c2ccc(CCCCCC)s2)s1
- absorption maximum (in Cc1ccccc1): 356 nm

SMILES: COc1cc(C=C(C#Cc2ccccc2)C#Cc2ccccc2)c(OC)cc1C=C(C#Cc1ccccc1)C#Cc1ccccc1
- absorption maximum (in ClC(Cl)Cl): 455 nm

SMILES: C/C=C/c1cccc(OC)c1
- absorption maximum (in CCCCCC): 293 nm

SMILES: CCC1=C(C)C2=Cc3c4ccccc4c4n3[B-](c3ccncc3)(Oc3ccccc3-4)[N+]2=C1C=Cc1ccc(OC)cc1 (stereo unspecified)
- absorption maximum (in CC#N): 690 nm
- absorption maximum (in CCCCCC): 698 nm
- absorption maximum (in Cc1ccccc1): 703 nm
- absorption maximum (in ClCCl): 699 nm

SMILES: c1ccc2c(-n3c4ccccc4c4ccccc43)cccc2c1
- absorption maximum (in C1CCCCC1): 321 nm
- absorption maximum (in C1CCOC1): 323 nm
- absorption maximum (in CC#N): 322 nm
- absorption maximum (in CCO): 325 nm
- absorption maximum (in CCOC(C)=O): 323 nm
- absorption maximum (in CCOCC): 322 nm
- absorption maximum (in CO): 323 nm
- absorption maximum (in Cc1ccccc1): 321 nm
- absorption maximum (in ClC(Cl)Cl): 324 nm

SMILES: CCCCC(CC)COc1ccc2nc(-c3ccc(-c4c(C)noc4C)s3)sc2c1 (stereo unspecified)
- absorption maximum (in ClCCl): 359 nm

SMILES: N#Cc1cc2nc3c(nc2cc1C#N)C1c2ccc(N(c4ccccc4)c4ccccc4)cc2C3c2ccc(N(c3ccccc3)c3ccccc3)cc21
- absorption maximum (in C1CCCCC1): 428 nm
- absorption maximum (in CC#N): 410 nm
- absorption maximum (in Cc1ccccc1): 420 nm
- absorption maximum (in ClCCl): 428 nm
